Results taken from patent US6699660B2, “Immediate early genes and methods of use therefor” (The Johns Hopkins University School of Medicine, priority 1998, dated 2004).

What was measured:
L100 mRNA [1] = assay: 3-NP ischemia model, Northern blot of total brain RNA; type: in vivo, rat; details: 3-NP 20 mg/kg i.p., three hours post-injection, total brain RNA without cerebellum; PSL - background; untreated 30.95
Experimental: (§1) In another study, the expression pattern of L100 and L119 was determined using two models for ischemia. Briefly, neurons degenerate in brain and spinal cord after acute insults (e.g., stroke, cardiac arrest, and trauma) and during progressive, adult-onset diseases (e.g., amyotrophic lateral sclerosis, and Alzheimer's disease). Impaired energy metabolism plays an important role in neuronal cell death after brain ischemia, and apoptosis has been implicated in cell death induced by metabolic impairment. The irreversible inhibitor of succinate dehydrogenase in the mitochondria, 3-nitroproplonic acid (3-NP), inhibits oxidative phosphorylation and causes intracellular hypoxia. Thus, one model used to study ischemia involves intrastriatal injections of 3-NP, which is known to produce selective cell death similar to that observed in transient ischemia and Huntington's disease (McLaughlin et al., J. Neurochem 70:2406-2415 (1998)). The other model is a global ischemic paradigm that involves a 15 minute insult by complete occlusion of the carotis.
(§2) In the 3-NP study, 220-300 g Wistar rats were intraperitoneally injected with 20 mg/kg body weight. Three hours post-injections, the brain was removed and total RNA prepared. In the global ischemia study, 220-300 g Wistar rats were received a 15 minute insult (bilateral occlusion of the Carotis/arterial pressure=35 mm Hg). One hour later, the rats received a reperfusion followed by immediate brain dissection and total RNA preparation. Untreated rats were used as controls for each study. Ten (10) μg of total rat brain RNA (without cerebellum) was loaded per lane and blotted. Probes were prepared from the 3′ untranslated regions of L100 and L119. The Northern blot data was collected using a Phosphoimager (FLA2000 Fuji, Tina software) and expressed as PSL—background.

L119 mRNA [2] = assay: as above; type: in vivo, rat; details: 3-NP 20 mg/kg i.p., three hours post-injection, total brain RNA without cerebellum; PSL - background; untreated 55.48
Experimental: as §1, §2

GAPDH mRNA = assay: as above; type: in vivo, rat; details: 3-NP 20 mg/kg i.p., three hours post-injection, total brain RNA without cerebellum; PSL - background; untreated 487.02
Experimental: as §1, §2

c-fos mRNA = assay: as above; type: in vivo, rat; details: 3-NP 20 mg/kg i.p., three hours post-injection, total brain RNA without cerebellum; PSL - background; untreated 18.1
R286 mRNA [3] = assay: PTZ-induced seizures, mRNA expression by Northern blot; type: in vivo, rat; details: hippocampus, 6 hour, vs PBS
Experimental: (§3) PTZ-induced seizures is a model used to study epilepsy and ischemia. Briefly, 300-350 g male Sprague-Dawley rats were intrapertoneally injected with either 50 mg/kg body weight of PTZ or PBS. Total RNA samples from the hippocampus, cortex, and cerebellum were prepared from treated rats at 20 minutes, 6 hours, and 24 hours post-injection. This RNA then was used to measure mRNA expression by Northern blot analysis. Control mRNA measurements included c-fos and GAPDH. A Phosphoimager FLA2000 (Fuji) was used to analyze the data, which was expressed as the Integral PSL—background PSL (1D evaluation with Aida version 2.0).
(§4) In addition, rats that developed seizures following intraperitoneal injection of kainate or PTZ were analyzed for the expression of R286 mRNA in addition to the mRNA of other LEG clones (Tables III and V).

R286 mRNA [4] = assay: PTZ-induced seizures, in situ hybridization; type: in vivo, rat
Experimental: (§5) For in situ hybridization, Dig-labeled cRNA probes were used as described elsewhere (Kuner et al., Science 283:5398 (1999)). Specifically, R286 mRNA expression was the highest in the cortex and hippocampus while being moderately high in the cerebellar granule cells, brainstem nuclei, several lateral and medial thalamic nuclei, olfactory bulb, and striatum. […] Briefly, a probe from the 3′ untranslated region of R286 was used to hybridize a Northern blot containing 2 μg polyA^+ RNA from hippocampus from brains of untreated rats as well as rats receiving the multiple MECS treatment. After one day of exposure using the phosphoimager FLA2000 (Fuji), an upregulation of R286 mRNA was detected in the hippocampus (3.72 fold induction) collected four hours after the last MECS treatment. An additional Northern blot analysis using 10 μg total RNA from hippocampus from untreated rats and rats receiving the multiple MECS treatment was performed.
as §4

R113 mRNA [5] = assay: PTZ-induced seizures, mRNA expression by Northern blot; type: in vivo, rat; details: hippocampus, 6 hour, vs PBS
Experimental: as §3

L100 mRNA [6] = assay: as above; type: in vivo, rat; details: for Fold increase in L100 mRNA expression upon PTZ treatment: vs PBS; for L100 mRNA expression normalized to GADPH expression: Integral PSL - background PSL
Experimental: as §3

L119 mRNA [7] = assay: as above; type: in vivo, rat; details: for Fold increase in L119 mRNA expression upon PTZ treatment: 20 min, vs PBS; for L119 mRNA expression normalized to GADPH expression: 20 min after PTZ 50 mg/kg i.p., Integral PSL - background PSL
Experimental: as §3

R113 mRNA [8] = assay: kainate-induced seizures, mRNA expression by Northern blot and RT-PCR; type: in vivo, rat; details: hippocampus, 1.5 hour, vs PBS
Experimental: (§6) Kainate-induced seizures is a model used to study epilepsy. Briefly, 300-350 g male Sprague-Dawley rats were intrapertoneally injected with either 10 mg/kg body weight of kainate or PBS. RNA samples from the hippocampus, cortex, and cerebellum were prepared from treated rats at 1.5, 6, and 24 hours post-injection. This RNA then was used to measure mRNA expression by Northern blot and RT-PCR analysis. Control mRNA measurements included c-fos, GAPDH, NO-38, and ATF-4 for the Northern blot analysis, and Hsp70, c-jun, Zif268, c-fos, Clathrin, and β-actin for the RT-PCR analysis. A Phosphoimager FLA2000 (Fuji) was used to analyze the data, which was expressed as the Integral PSL—background PSL (1D evaluation with Aida version 2.0).

L100 mRNA [9] = assay: as above; type: in vivo, rat; details: for L100 mRNA expression normalized to GADPH expression: Integral PSL - background PSL; for Fold increase in L100 mRNA expression upon kainate treatment: vs PBS
Experimental: as §6

L094 mRNA = assay: as above; type: in vivo, rat; details: hippocampus, 1.5 hour, vs PBS
Experimental: as §6

A013 mRNA = assay: as above; type: in vivo, rat; details: hippocampus, 1.5 hour, vs PBS
Experimental: as §6

L119 mRNA [10] = assay: as above; type: in vivo, rat; details: for L119 mRNA expression normalized to GADPH expression: Integral PSL - background PSL; for Fold increase in L119 mRNA expression upon kainate treatment: vs PBS
Experimental: as §6

L100 mRNA [11] = assay: kainate-induced seizures, in situ hybridization; type: in vivo, rat; details: six hours following kainate injection
Experimental: For in situ hybridization, Dig-labeled cRNA probes were used as described elsewhere (Kuner et al., Science 283:5398 (1999)). […] Specifically, L100 mRNA expression was induced 17.2 fold by the multiple MECS treatment as determined from Northern blot data using total RNA from rat hippocampus (Table I).
as §6

R286 mRNA [12] = assay: kainate-induced seizures, in situ hybridization; type: in vivo, rat
Experimental: as §5, §4

[13] = test system: R010 expression in PC12 cells; assay: NGF treatment of PC12 cells, R010 expression; type: cell-based
[14] = cortex, 6 hour after kainate 10 mg/kg i.p.
[15] = cortex, 24 hour after kainate 10 mg/kg i.p.
[16] = hippocampus, 1.5 hour after kainate 10 mg/kg i.p.
[17] = hippocampus, 6 hour after kainate 10 mg/kg i.p.
[18] = hippocampus, 24 hour after kainate 10 mg/kg i.p.

Compound: O=C(O)CC[N+](=O)[O-] [3-NP, 3-nitroproplonic acid]
- L100 mRNA expression after 3-NP treatment (L100 mRNA [1]): 43.82
- L119 mRNA expression after 3-NP treatment (L119 mRNA [2]): 41.94
- GAPDH mRNA expression after 3-NP treatment (GAPDH mRNA): 587.51
- c-fos mRNA expression after 3-NP treatment (c-fos mRNA): 26.64

Compound: C1CCc2nnnn2CC1 [PTZ, pentylenetetrazole]
- Fold increase in R286 mRNA expression upon PTZ treatment (R286 mRNA [3]): 2.6 fold
- R286 mRNA expression by in situ hybridization (R286 mRNA [4]; 20 minutes post-PTZ injection): no upregulation
- R286 mRNA expression by in situ hybridization (R286 mRNA [4]; 6 hours post-PZT injection, hippocampal pyramidal cell layer, cortex, thalamus, cerebellar Purkinje cell layer): mildly upregulated
- Fold increase in R113 mRNA expression upon PTZ treatment (R113 mRNA [5]): 2.0 fold
- expression of L100 mRNA when acute seizures were induced by PTZ treatment (L100 mRNA [6]; PTZ 50 mg/kg i.p.): strongly upregulated
- Fold increase in L100 mRNA expression upon PTZ treatment (L100 mRNA [6]; cortex, 20 min): 2.84 fold
- L100 mRNA expression normalized to GADPH expression (L100 mRNA [6]; cortex, 20 min after PTZ 50 mg/kg i.p.): 2719
- L100 mRNA expression normalized to GADPH expression (L100 mRNA [6]; cortex, 6 hour after PTZ 50 mg/kg i.p.): 3740
- Fold increase in L100 mRNA expression upon PTZ treatment (L100 mRNA [6]; cortex, 6 hour): 3.22 fold
- L100 mRNA expression normalized to GADPH expression (L100 mRNA [6]; cortex, 24 hour after PTZ 50 mg/kg i.p.): 1825
- Fold increase in L100 mRNA expression upon PTZ treatment (L100 mRNA [6]; cortex, 24 hour): 1.55 fold
- Fold increase in L100 mRNA expression upon PTZ treatment (L100 mRNA [6]; hippocampus, 20 min): 3.1 fold
- L100 mRNA expression normalized to GADPH expression (L100 mRNA [6]; hippocampus, 20 min after PTZ 50 mg/kg i.p.): 1637
- L100 mRNA expression normalized to GADPH expression (L100 mRNA [6]; hippocampus, 6 hour after PTZ 50 mg/kg i.p.): 1992
- Fold increase in L100 mRNA expression upon PTZ treatment (L100 mRNA [6]; hippocampus, 6 hour): 2.33 fold
- L100 mRNA expression normalized to GADPH expression (L100 mRNA [6]; hippocampus, 24 hour after PTZ 50 mg/kg i.p.): 1903
- Fold increase in L100 mRNA expression upon PTZ treatment (L100 mRNA [6]; hippocampus, 24 hour): 1.97 fold
- Fold increase in L119 mRNA expression upon PTZ treatment (L119 mRNA [7]; cortex): 2.78 fold
- L119 mRNA expression normalized to GADPH expression (L119 mRNA [7]; cortex): 1605
- Fold increase in L119 mRNA expression upon PTZ treatment (L119 mRNA [7]; hippocampus): 2.82 fold
- L119 mRNA expression normalized to GADPH expression (L119 mRNA [7]; hippocampus): 965

Compound: C=C(C)[C@H]1CN[C@H](C(=O)O)[C@H]1CC(=O)O [kainate]
- Fold increase in R113 mRNA expression upon kainate treatment (R113 mRNA [8]): 2.0 fold
- L100 mRNA expression normalized to GADPH expression (L100 mRNA [9]; [14]): 290
- Fold increase in L100 mRNA expression upon kainate treatment (L100 mRNA [9]; cortex, 6 hour): 3.58 fold
- L100 mRNA expression normalized to GADPH expression (L100 mRNA [9]; [15]): 131
- Fold increase in L100 mRNA expression upon kainate treatment (L100 mRNA [9]; cortex, 24 hour): 1.52 fold
- L100 mRNA expression normalized to GADPH expression (L100 mRNA [9]; [16]): 85251
- Fold increase in L100 mRNA expression upon kainate treatment (L100 mRNA [9]; hippocampus, 1.5 hour): 18.44 fold
- L100 mRNA expression normalized to GADPH expression (L100 mRNA [9]; [17]): 15444
- Fold increase in L100 mRNA expression upon kainate treatment (L100 mRNA [9]; hippocampus, 6 hour): 1.97 fold
- L100 mRNA expression normalized to GADPH expression (L100 mRNA [9]; [18]): 16551
- Fold increase in L100 mRNA expression upon kainate treatment (L100 mRNA [9]; hippocampus, 24 hour): 4.20 fold
- expression of L100 mRNA when acute seizures were induced by kainate treatment (L100 mRNA [9]; kainate 10 mg/kg i.p.): strongly upregulated
- Fold increase in L094 mRNA expression upon kainate treatment (L094 mRNA): 3.6 fold
- Fold increase in A013 mRNA expression upon kainate treatment (A013 mRNA): 9.8 fold
- L119 mRNA expression normalized to GADPH expression (L119 mRNA [10]; [14]): 1262
- L119 mRNA expression normalized to GADPH expression (L119 mRNA [10]; [15]): 505
- L119 mRNA expression normalized to GADPH expression (L119 mRNA [10]; [16]): 69982
- Fold increase in L119 mRNA expression upon kainate treatment (L119 mRNA [10]; hippocampus, 1.5 hour): 24.85 fold
- L119 mRNA expression normalized to GADPH expression (L119 mRNA [10]; [17]): 11519
- Fold increase in L119 mRNA expression upon kainate treatment (L119 mRNA [10]; hippocampus, 6 hour): 2.51 fold
- L119 mRNA expression normalized to GADPH expression (L119 mRNA [10]; [18]): 12944
- Fold increase in L119 mRNA expression upon kainate treatment (L119 mRNA [10]; hippocampus, 24 hour): 4.64 fold
- L100 mRNA regulation by in situ hybridization (L100 mRNA [11]; dentate gyrus, CA3 and CA4 of hippocampus, entorrhinal cortex, cingulum, fimbria): strong upregulation
- L100 mRNA regulation by in situ hybridization (L100 mRNA [11]; thalamic nuclei, temporal, parietal, frontal, medial orbital and cingulate cortex, cerebellar granule cells): Moderate upregulation
- R286 mRNA expression by in situ hybridization (R286 mRNA [12]; 1.5 hours post-kainate injection): no upregulation
- R286 mRNA expression by in situ hybridization (R286 mRNA [12]; 6 hours post-kainate injection, hippocampal pyramidal cell layer, cortex, thalamus, cerebellar Purkinje cell layer): mildly upregulated

Compound: NGF: NGF used to treat PC12 cells
- R010 expression in vitro [13]: rapidly induced
